Measurements as given in ChEMBL document CHEMBL1201861, “Genomics of Drug Sensitity in Cancer screening data, Wellcome Trust Sanger Institute”.

Assays:
Assay in all cases: cells
SW982 = format: functional, cell-based; conditions: Homo sapiens;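 note: growth inhibition of SW982 cells, read out with a cell viability assay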
Description: SANGER: Inhibition of human SW982 cell growth in a cell viability assay.

Daoy = format: functional, cell-based, Homo sapiens; conditions: Homo sapiens, Daoy;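 note: daoy cell growth inhibition, read out as cell viability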
Description: SANGER: Inhibition of human Daoy cell growth in a cell viability assay.

786-0 = format: functional, cell-based, Homo sapiens; conditions: Homo sapiens
Description: SANGER: Inhibition of human 786-0 cell growth in a cell viability assay.

NCI-H2342 = format: functional, cell-based; conditions: Homo sapiens;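 note: growth inhibition of the cancer cell line, determined with a cell viability assay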
Description: SANGER: Inhibition of human NCI-H2342 cell growth in a cell viability assay.

MCF7 = format: functional, cell-based, Homo sapiens; conditions: Homo sapiens, MCF7;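 note: growth inhibition of human MCF7 cells, read out with a cell viability assay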
Description: SANGER: Inhibition of human MCF7 cell growth in a cell viability assay.

SW780 = format: functional, cell-based, Homo sapiens; conditions: Homo sapiens, SW780;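 note: growth inhibition of the cells, read out with a cell viability assay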
Description: SANGER: Inhibition of human SW780 cell growth in a cell viability assay.

MV4-11 = format: functional, cell-based, MV-4-11; conditions: Homo sapiens;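 note: cell viability readout measuring growth inhibition of human MV-4-11 cells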
Description: SANGER: Inhibition of human MV-4-11 cell growth in a cell viability assay.

D-247MG = format: functional, cell-based, Homo sapiens; conditions: Homo sapiens, D-247MG
Description: SANGER: Inhibition of human D-247MG cell growth in a cell viability assay.

LCLC-97TM1 = format: functional, cell-based, Homo sapiens; conditions: Homo sapiens, LCLC-97TM1;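 note: cell viability assay measuring growth inhibition of human LCLC-97TM1 cells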
Description: SANGER: Inhibition of human LCLC-97TM1 cell growth in a cell viability assay.

NCI-H747 = format: functional, cell-based; conditions: Homo sapiens;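 note: growth inhibition of human NCI-H747 cells, read out by a cell viability assay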
Description: SANGER: Inhibition of human NCI-H747 cell growth in a cell viability assay.

SCC-25 = format: functional, cell-based, Homo sapiens; conditions: Homo sapiens, SCC-25;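 note: growth inhibition of SCC-25 cells, measured with a cell viability assay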
Description: SANGER: Inhibition of human SCC-25 cell growth in a cell viability assay.

MKN-45 = format: functional, cell-based, Homo sapiens; conditions: Homo sapiens, MKN-45;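 note: growth inhibition of human MKN-45 cells, measured with a cell viability assay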
Description: SANGER: Inhibition of human MKN45 cell growth in a cell viability assay.

MIA PaCa-2 = format: functional, cell-based, Homo sapiens; conditions: Homo sapiens, MIA PaCa-2;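 note: growth inhibition of MIA PaCa-2 cells, read out with a cell viability assay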
Description: SANGER: Inhibition of human MIA-PaCa-2 cell growth in a cell viability assay.

D283 Med = format: functional, cell-based, Homo sapiens; conditions: Homo sapiens, D283 Med
Description: SANGER: Inhibition of human D-283MED cell growth in a cell viability assay.

A673 = format: functional, cell-based, Homo sapiens; conditions: Homo sapiens, A673;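 note: growth inhibition of human A673 cells, read out through a cell viability assay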
Description: SANGER: Inhibition of human A673 cell growth in a cell viability assay.

NB7 = format: functional, cell-based; conditions: Homo sapiens;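 note: growth inhibition of NB7 cells, read out with a cell viability assay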
Description: SANGER: Inhibition of human NB7 cell growth in a cell viability assay.

NCI-H727 = format: functional, cell-based, Homo sapiens; conditions: Homo sapiens, NCI-H727;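 note: growth inhibition of human NCI-H727 cells, read out with a cell viability assay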
Description: SANGER: Inhibition of human NCI-H727 cell growth in a cell viability assay.

HO-1-N-1 = format: functional, cell-based, Homo sapiens; conditions: Homo sapiens, HO-1-N-1;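 note: growth inhibition of human HO-1-N-1 cells, read out with a cell viability assay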
Description: SANGER: Inhibition of human HO-1-N-1 cell growth in a cell viability assay.

ES8 = format: functional, cell-based, Homo sapiens; conditions: Homo sapiens, ES8;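 note: growth inhibition of human ES8 cells, read out with a cell viability assay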
Description: SANGER: Inhibition of human ES8 cell growth in a cell viability assay.

DK-MG = format: functional, cell-based, Homo sapiens; conditions: Homo sapiens, DK-MG;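 note: growth inhibition of DK-MG cells, read out with a cell viability assay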
Description: SANGER: Inhibition of human DK-MG cell growth in a cell viability assay.

PSN1 = format: functional, cell-based, Homo sapiens; conditions: Homo sapiens, PSN1;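 note: suppression of growth of human PSN1 cells, read out by a cell viability assay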
Description: SANGER: Inhibition of human PSN1 cell growth in a cell viability assay.

KP-4 = format: functional, cell-based, Homo sapiens; conditions: Homo sapiens, KP-4; read-out: IC50;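 note: human KP-4 cells, with growth inhibition read out through a cell viability assay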
Description: SANGER: Inhibition of human KP-4 cell growth in a cell viability assay.

NY = format: functional, cell-based, Homo sapiens; conditions: Homo sapiens, NY
Description: SANGER: Inhibition of human NY cell growth in a cell viability assay.

OE19 = format: functional, cell-based, Homo sapiens; conditions: Homo sapiens, OE19;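 note: growth inhibition of OE19 cells, measured through a cell viability read-out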
Description: SANGER: Inhibition of human OE19 cell growth in a cell viability assay.

HSC-3 = format: functional, cell-based, Homo sapiens; conditions: Homo sapiens, HSC-3
Description: SANGER: Inhibition of human HSC-3 cell growth in a cell viability assay.

DJM-1 = format: functional, cell-based, Homo sapiens; conditions: Homo sapiens, DJM-1;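 note: growth inhibition of human DJM-1 cells, read out by a cell viability assay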
Description: SANGER: Inhibition of human DJM-1 cell growth in a cell viability assay.

YAPC = format: functional, cell-based, Homo sapiens; conditions: Homo sapiens, YAPC;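 note: growth inhibition of YAPC cells, measured with a cell viability assay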
Description: SANGER: Inhibition of human YAPC cell growth in a cell viability assay.

EC-GI-10 = format: functional, cell-based, Homo sapiens; conditions: Homo sapiens, EC-GI-10
Description: SANGER: Inhibition of human EC-GI-10 cell growth in a cell viability assay.

KM12 = format: functional, cell-based, Homo sapiens; conditions: Homo sapiens, KM12;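 note: KM12 cell growth inhibition, read out with a cell viability assay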
Description: SANGER: Inhibition of human KM12 cell growth in a cell viability assay.

BB30-HNC = format: functional, cell-based, Homo sapiens; conditions: Homo sapiens, BB30-HNC;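 note: growth inhibition of the cultured cell line, read out by a cell viability assay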
Description: SANGER: Inhibition of human BB30-HNC cell growth in a cell viability assay.

J-RT3-T3-5 = format: functional, cell-based; conditions: Homo sapiens;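 note: cell viability assay measuring growth inhibition of human J-RT3-T3-5 cells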
Description: SANGER: Inhibition of human J-RT3-T3-5 cell growth in a cell viability assay.

COLO-800 = format: functional, cell-based, Homo sapiens; conditions: Homo sapiens, COLO-800;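 note: growth inhibition of COLO-800 cells, read out with a cell viability assay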
Description: SANGER: Inhibition of human COLO-800 cell growth in a cell viability assay.

U-266 = format: functional, cell-based; conditions: Homo sapiens
Description: SANGER: Inhibition of human U-266 cell growth in a cell viability assay.

BB49-HNC = format: functional, cell-based, Homo sapiens; conditions: Homo sapiens, BB49-HNC;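 note: cell viability assay read-out, reported as inhibition of BB49-HNC cell growth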
Description: SANGER: Inhibition of human BB49-HNC cell growth in a cell viability assay.

LNCaP-Clone-FGC = format: functional, cell-based, Homo sapiens; conditions: Homo sapiens, LNCaP-Clone-FGC
Description: SANGER: Inhibition of human LNCaP-Clone-FGC cell growth in a cell viability assay.

MKN-28 = format: functional, cell-based, Homo sapiens; conditions: Homo sapiens, MKN-28;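 note: cell viability assay read-out, IC50 reflects suppression of growth of human MKN-28 cells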
Description: SANGER: Inhibition of human MKN28 cell growth in a cell viability assay.

T84 = format: functional, cell-based, Homo sapiens; conditions: Homo sapiens, T84;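 note: growth inhibition measured with a cell viability readout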
Description: SANGER: Inhibition of human T84 cell growth in a cell viability assay.

KS-1 = format: functional, cell-based, Homo sapiens; conditions: Homo sapiens, KS-1;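 note: growth inhibition of KS-1 cells, read out with a cell viability assay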
Description: SANGER: Inhibition of human KS-1 cell growth in a cell viability assay.

TE-12 = format: functional, cell-based; conditions: Homo sapiens;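 note: growth inhibition of TE-12 cells, read out by a cell viability assay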
Description: SANGER: Inhibition of human TE-12 cell growth in a cell viability assay.

MEG-01 = format: functional, cell-based; conditions: Homo sapiens;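 note: growth inhibition of MEG-01 cells, read out by a cell viability assay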
Description: SANGER: Inhibition of human MEG-01 cell growth in a cell viability assay.

PANC-03-27 = format: functional, cell-based, Homo sapiens; conditions: Homo sapiens, PANC-03-27
Description: SANGER: Inhibition of human PANC-03-27 cell growth in a cell viability assay.

NEC8 = format: functional, cell-based, Homo sapiens; conditions: Homo sapiens, NEC8;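 note: growth inhibition of human NEC8 cells, read out by a cell viability assay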
Description: SANGER: Inhibition of human NEC8 cell growth in a cell viability assay.

HuCCT-1 = format: functional, cell-based, Homo sapiens, HuCCT1; conditions: Homo sapiens, HuCCT-1;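 note: growth inhibition of HuCCT-1 cells, read out by a cell viability assay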
Description: SANGER: Inhibition of human HuCCT1 cell growth in a cell viability assay.

697 = format: functional, cell-based; conditions: Homo sapiens
Description: SANGER: Inhibition of human 697 cell growth in a cell viability assay.

EFM-19 = format: functional, cell-based, Homo sapiens; conditions: Homo sapiens, EFM-19;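 note: growth inhibition of human EFM-19 cells, measured in a cell viability assay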
Description: SANGER: Inhibition of human EFM-19 cell growth in a cell viability assay.

SK-N-DZ = format: functional, cell-based, Homo sapiens; conditions: Homo sapiens, SK-N-DZ;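 note: growth inhibition of the cancer cell line, read out through a viability assay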
Description: SANGER: Inhibition of human SK-N-DZ cell growth in a cell viability assay.

BT-20 = format: functional, cell-based, Homo sapiens; conditions: Homo sapiens, BT-20;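 note: cell viability assay measuring suppression of growth in human BT-20 cells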
Description: SANGER: Inhibition of human BT-20 cell growth in a cell viability assay.

UMC-11 = format: functional, cell-based, Homo sapiens; conditions: Homo sapiens, UMC-11;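 note: growth inhibition of UMC-11 cells, read out with a cell viability assay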
Description: SANGER: Inhibition of human UMC-11 cell growth in a cell viability assay.

KYSE-520 cell line = format: functional, cell-based, Homo sapiens; conditions: Homo sapiens, KYSE-520;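 note: growth inhibition of human KYSE-520 cells, read out with a viability assay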
Description: SANGER: Inhibition of human KYSE-520 cell growth in a cell viability assay.

EW-18 = format: functional, cell-based; conditions: Homo sapiens;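 note: growth inhibition of EW-18 cells, read out by a cell viability assay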
Description: SANGER: Inhibition of human EW-18 cell growth in a cell viability assay.

SW1783 = format: functional, cell-based; conditions: Homo sapiens;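 note: cell growth inhibition measured with a viability assay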
Description: SANGER: Inhibition of human SW1783 cell growth in a cell viability assay.

LB373-MEL-D = format: functional, cell-based, Homo sapiens; conditions: Homo sapiens, LB373-MEL-D;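 note: growth inhibition of the cell line, read out in a cell viability assay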
Description: SANGER: Inhibition of human LB373-MEL-D cell growth in a cell viability assay.

Measured: IC50

CN(Cc1cnc2nc(N)nc(N)c2n1)c1ccc(C(=O)N[C@@H](CCC(=O)O)C(=O)O)cc1 [METHOTREXATE]
164 nM: KM12
12.6 nM: 697
116 nM: SW780
99.4 nM: MEG-01
19.4 nM: MV4-11 | J-RT3-T3-5
94.3 nM: BB30-HNC
124 nM: COLO-800
not listed: LB373-MEL-D
> 200 nM: all other assays above

C=CCNC1=C2C[C@@H](C)C[C@H](OC)[C@H](O)[C@@H](C)/C=C(\C)[C@H](OC(N)=O)[C@@H](OC)/C=C\C=C(/C)C(=O)NC(=CC1=O)C2=O [TANESPIMYCIN]
242 nM: NCI-H747
389 nM: EW-18
68 nM: MV4-11
30 nM: SW982
42.4 nM: BB49-HNC
40.2 nM: HO-1-N-1
182 nM: KYSE-520 cell line
13.6 nM: KS-1
30.8 nM: OE19
552 nM: UMC-11
87.3 nM: LCLC-97TM1
323 nM: HuCCT-1
451 nM: YAPC
308 nM: ES8
9.29 nM: HSC-3
47.5 nM: KP-4
82.2 nM: MKN-45
96.8 nM: MCF7
372 nM: DK-MG
340 nM: SW1783
246 nM: SCC-25
173 nM: BB30-HNC
63.5 nM: KM12
42 nM: SW780
258 nM: COLO-800
800 nM: LNCaP-Clone-FGC
10.1 nM: MIA PaCa-2
666 nM: MKN-28
317 nM: Daoy
154 nM: 786-0
103 nM: PANC-03-27
94.5 nM: D-247MG
737 nM: EFM-19
46 nM: PSN1
not listed: EC-GI-10
> 1000 nM: all other assays above

CC(=O)O[C@@H]1[C@@H](OC(C)=O)[C@@H](O)[C@H](Oc2c(-c3ccc(O)cc3)oc3cc(O)cc(O)c3c2=O)O[C@H]1C
not listed: EC-GI-10
> 10000 nM: all other assays above
